Assay results from patent publication US4849345A, “L-phenylalanine dehydrogenase and use thereof” (priority 1985, dated 1989).
Where two headings read alike, the source gives them in different places.

How the values were obtained:
Assay type in all cases: biochemical
[1] = biological target: T1, L-phenylalanine dehydrogenase produced by Sporosarcina ureae SCRC-R04 (Sporosarcina ureae, UniProt P97014); assay: Substrate and coenzyme specificity, oxidative deamination (Sporosarcina enzyme); conditions: for activity at 10000 µM: substrate concentration 10 mM, L-phenylalanine = 100
T1 sequence (P97014 1-379): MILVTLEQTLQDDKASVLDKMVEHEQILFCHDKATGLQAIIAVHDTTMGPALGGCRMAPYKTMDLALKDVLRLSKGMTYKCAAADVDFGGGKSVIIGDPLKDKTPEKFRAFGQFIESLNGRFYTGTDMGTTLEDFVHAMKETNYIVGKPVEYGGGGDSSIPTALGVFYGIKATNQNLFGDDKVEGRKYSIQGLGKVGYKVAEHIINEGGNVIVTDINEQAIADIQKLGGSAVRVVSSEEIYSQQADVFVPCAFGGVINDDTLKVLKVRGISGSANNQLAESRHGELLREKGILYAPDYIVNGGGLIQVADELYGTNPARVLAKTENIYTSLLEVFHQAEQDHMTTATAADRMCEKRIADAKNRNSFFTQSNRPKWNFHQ
Procedure: The substrate concentration is 10 mM, except for the L-tyrosine concentration which is 1.4 mM.

[2] = biological target: T2, L-phenylalanine dehydrogenase produced by Bacillus sp. SCRC-R79a (Lysinibacillus sphaericus, UniProt P23307); assay: Substrate and coenzyme specificity, oxidative deamination (Bacillus enzyme); set-up: inoculated with Bacillus sp; endogenous in cells; host or cells: Bacillus sp; enzyme purified in house
T2 sequence (P23307 1-381): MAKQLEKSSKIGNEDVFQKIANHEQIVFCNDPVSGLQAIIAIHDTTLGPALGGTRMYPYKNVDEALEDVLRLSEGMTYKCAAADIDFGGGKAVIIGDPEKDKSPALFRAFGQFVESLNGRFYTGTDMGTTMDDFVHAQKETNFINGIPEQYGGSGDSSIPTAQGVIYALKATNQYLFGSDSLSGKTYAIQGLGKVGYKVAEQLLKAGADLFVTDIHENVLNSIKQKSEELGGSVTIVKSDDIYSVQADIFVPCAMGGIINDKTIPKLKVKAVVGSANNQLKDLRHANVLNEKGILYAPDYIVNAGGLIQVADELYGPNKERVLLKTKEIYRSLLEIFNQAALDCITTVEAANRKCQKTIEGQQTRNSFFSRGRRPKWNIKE
Procedure: The substrate concentration is 10 mM except for the L-tyrosine concentration which is 1.4 mM.

[3] = biological target: T1, L-phenylalanine dehydrogenase produced by Sporosarcina ureae SCRC-R04; assay: biochemical; conditions: for activity at 1000 µM: read-out: Relative activity
[4] = biological target: T2, L-phenylalanine dehydrogenase produced by Bacillus sp. SCRC-R79a; assay: Effect of metal ions and inhibitors on enzyme activity (Bacillus enzyme); set-up: inoculated with Bacillus sp; endogenous in cells; host or cells: Bacillus sp; enzyme purified in house; conditions: for activity at 1000 µM: read-out: Relative activity
Procedure: Unless otherwise described, the concentration of metal cations and inhibitors is 1 mM.

[5] = 1 mM, not added = 100, listed as Fe^3+, 1000 µM
[6] = oxidative deamination, read-out: Relative activity (%)
[7] = oxidative deamination, substrate concentration 10 mM, L-phenylalanine = 100, read-out: Relative activity (%)
[8] = read-out: Relative activity (%)

O=C(O)[C@@H]1CCCN1 [L-proline]
action of the enzyme on the amino acid as substrate (in words) ([1]; oxidative deamination): cannot serve as a substrate
action of the enzyme on the amino acid as substrate (in words) ([2]; oxidative deamination): cannot serve as a substrate

N[C@@H](CC(=O)O)C(=O)O [L-aspartic acid]
action of the enzyme on the amino acid as substrate (in words) ([1]; oxidative deamination): cannot serve as a substrate
action of the enzyme on the amino acid as substrate (in words) ([2]; oxidative deamination): cannot serve as a substrate

C[C@H](N)C(=O)O [L-alanine]
action of the enzyme on the amino acid as substrate (in words) ([1]; oxidative deamination): cannot serve as a substrate
action of the enzyme on the amino acid as substrate (in words) ([2]; oxidative deamination): cannot serve as a substrate

c1cnc2c(c1)ccc1cccnc12 [o-Phenanthroline]
activity at 1000 µM ([3]; 1 mM, not added = 100): 103%
activity at 1000 µM ([4]; 1 mM, not added = 100): 99%

[Na+] [Na^+]
Relative activity ([3]; 1 mM, not added = 100): 92%
Relative activity ([4]; 1 mM, not added = 100): 93%

[Cu+2] [Cu^2+]
Relative activity ([3]; 1 mM, not added = 100): 91%
Relative activity ([4]; 1 mM, not added = 100): 85%

NO [Hydroxylamine]
Relative activity ([3]; 10 mM, not added = 100): 173%
Relative activity ([4]; 10 mM, not added = 100): 90%

[Fe+2] [Fe^2+]
Relative activity ([3]; 1 mM, not added = 100, 1000 µM): 127%
Relative activity [3, 5]: 161%
Relative activity ([4]; 1 mM, not added = 100, 1000 µM): 116%
Relative activity [4, 5]: 117%

N[C@@H](Cc1c[nH]cn1)C(=O)O [L-histidine]
action of the enzyme on the amino acid as substrate (in words) ([1]; oxidative deamination): cannot serve as a substrate
action of the enzyme on the amino acid as substrate (in words) ([2]; oxidative deamination): cannot serve as a substrate

[Sn+2] [Sn^2+]
Relative activity ([3]; 0.5 mM, not added = 100): 123%
Relative activity ([4]; 0.5 mM, not added = 100): 110%

[Mn+2] [Mn^2+]
Relative activity ([3]; 1 mM, not added = 100): 129%
Relative activity ([4]; 1 mM, not added = 100): 95%

[Li+] [Li^+]
Relative activity ([3]; 1 mM, not added = 100): 96%
Relative activity ([4]; 1 mM, not added = 100): 95%

CCCC[C@H](N)C(=O)O [L--Norleucine, L-norleucine]
activity at 10000 µM [1, 6]: 15%
activity at 10000 µM [2, 7]: 3.9%

[Pb+2] [Pb^2+]
Relative activity ([3]; 1 mM, not added = 100): 81%
Relative activity ([4]; 1 mM, not added = 100): 53%

NC(=O)c1ccc[n+]([C@@H]2O[C@H](COP(=O)([O-])OP(=O)(O)OC[C@H]3O[C@@H](n4cnc5c(N)ncnc54)[C@H](OP(=O)(O)O)[C@@H]3O)[C@@H](O)[C@H]2O)c1 [NADP^+]
activity relative to NAD^+ as coenzyme ([1]; coenzyme): about 3.9%
activity relative to NAD^+ as coenzyme ([2]; coenzyme): ~2.9%

N[C@@H](Cc1c[nH]c2ccccc12)C(=O)O [L--Tryptophan, L-tryptophan]
action of the enzyme on the amino acid as substrate (in words) ([1]; oxidative deamination): act very weakly
activity at 10000 µM [1, 6]: 6.8%
action of the enzyme on the amino acid as substrate (in words) ([2]; oxidative deamination): acting very weakly
activity at 10000 µM [2, 7]: 1.6%

Oc1cccc2cccnc12 [8-Oxyquinoline]
Relative activity ([3]; 1000 µM): 101
Relative activity ([4]; 1000 µM): 96

O=C(O)CN(CCN(CC(=O)O)CC(=O)O)CC(=O)O [EDTA]
activity at 1000 µM [3]: 119%
activity at 1000 µM [4]: 120%

[Ag+] [Ag^+]
effect on enzyme activity (in words) [3]: inhibited
Relative activity ([3]; 1 mM, not added = 100): 0%
effect on enzyme activity (in words) [4]: inhibited
Relative activity ([4]; 1 mM, not added = 100): 0%

N[C@@H](Cc1ccc(O)cc1)C(=O)O [L--Tyrosine, L-tyrosine]
action of the enzyme on the amino acid as substrate (in words) ([1]; oxidative deamination): act very weakly
activity at 1400 µM ([1]; oxidative deamination, substrate concentration 1.4 mM, read-out: Relative activity (%)): 5.4%
action of the enzyme on the amino acid as substrate (in words) ([2]; oxidative deamination): acting strongly
activity at 1400 µM [2, 8]: 72%

NC(=O)C[C@H](N)C(=O)O [L-asparagine]
action of the enzyme on the amino acid as substrate (in words) ([1]; oxidative deamination): cannot serve as a substrate
action of the enzyme on the amino acid as substrate (in words) ([2]; oxidative deamination): cannot serve as a substrate

O=C(O)c1cc(SSc2ccc([N+](=O)[O-])c(C(=O)O)c2)ccc1[N+](=O)[O-] [5,5'-Dithio-bis(2-nitrobenzoic acid)]
effect on enzyme activity (in words) [3]: inhibited
activity at 1000 µM ([3]; 1 mM, not added = 100): 0%
activity at 1000 µM ([4]; 1 mM, not added = 100): 74%

N[C@@H](CO)C(=O)O [L-serine]
action of the enzyme on the amino acid as substrate (in words) ([1]; oxidative deamination): cannot serve as a substrate
action of the enzyme on the amino acid as substrate (in words) ([2]; oxidative deamination): cannot serve as a substrate

CSCC[C@H](N)C(=O)O [L--Methionine, L-methionine]
action of the enzyme on the amino acid as substrate (in words) ([1]; oxidative deamination): act very weakly
activity at 10000 µM [1, 6]: 4.1%
action of the enzyme on the amino acid as substrate (in words) ([2]; oxidative deamination): acting very weakly
activity at 10000 µM [2, 8]: 3%

O=C(O)CI [Iodoacetic acid]
activity at 1000 µM [3]: 91%
activity at 1000 µM [4]: 127%

[Zn+2] [Zn^2+]
Relative activity ([3]; 1 mM, not added = 100): 99%
Relative activity ([4]; 1 mM, not added = 100): 96%
